Data: paper PMC7481357, “N-terminal Myristoylation Enhanced the Antimicrobial Activity of Antimicrobial Peptide PMAP-36PW” (Frontiers in Cellular and Infection Microbiology, 2020)
“Also recorded” adds a separate entry of the source. No end group written: not given here.

Key:
[1] = test system: L. monocytogenes CICC 21634; assay type: cell-based, Listeria monocytogenes; conditions: for MICs of different classes of antibiotics: L. monocytogenes CICC 21634, * indicates resistant (CLSI, 2020); for MICs: CICC 21634, 18 h
Procedure: (§1) The MICs of Myr-36PW in vitro were measured through microdilution in accordance with the Clinical and Laboratory Standards Institute (CLSI, [2020]). The bacterial cells were cultured for 12 h at 37°C in the appropriate medium and then diluted to 1 × 10^6 CFU/mL. Equal volumes (100 μL) of bacterial cell suspension and two-fold serially diluted different concentrations peptides (0.0039–256 μg/mL) were added to each well of the sterile 96-well plate. The samples were incubated for 18 h at 37°C. After incubation, the MICs of the peptides were determined by evaluating the growth based on the OD600 of the cultures.

[2] = test system: S. aureus ATCC 25923; assay type: cell-based, Staphylococcus aureus; conditions: for MICs of different classes of antibiotics: S. aureus ATCC 25923, * indicates resistant (CLSI, 2020); for MICs: ATCC 25923, 18 h
Procedure: as §1

[3] = test system: P. aeruginosa GIM 1.551; assay type: cell-based, Pseudomonas aeruginosa; conditions: for MICs of different classes of antibiotics: P. aeruginosa GIM 1.551, * indicates resistant (CLSI, 2020); for MICs: GIM 1.551, 18 h
Procedure: as §1

[4] = test system: S. typhimurium SL 1344; assay type: cell-based, Salmonella typhimurium; conditions: for MICs of different classes of antibiotics: S. typhimurium SL 1344, * indicates resistant (CLSI, 2020); for MICs: SL 1344, 18 h
Procedure: as §1

[5] = test system: P. aeruginosa GIM 1.551; assay: Wound infection model; assay type: in vivo, BALB/c mice; conditions: 20 μL, 1 μg/μL, once a day for 7 days
Procedure: Sixty mice with ten mice in each group were used in the experiment. Infection and treatment were performed as previously described (Hong et al., [2017]). The mouse dorsal region with a diameter of 3.0 cm was treated with hair pusher, and a full-thickness 2.0 cm diameter wound was created by excising the skin and infected by direct seeding with P. aeruginosa GIM 1.551 (1 × 10^8 CFU/mL, 50 μL). The wound was then covered with sterile gauze to prevent cross contamination. Treatment was initiated at 24 h after bacterial inoculation. The mice with no infection and treatment was used as a blank control, those provided with PBS (20 μL) as the negative control group, those administered with ampicillin sodium (20 μL, 1 μg/μL) as the positive control group, and the remaining were those treated with the three peptides (20 μL, 1 μg/μL) once a day for 7 days as the treatment groups. The mice were sacrificed after the 7 day treatment. Changes in the wound were observed, and the infected sections of skin were aseptically contained, homogenized, and serially diluted. Bacterial CFU counts were obtained.
Figure 11 Treatment value of wound by Myr-36PW in vivo. A 2 cm wound was cut with a knife and directly injected with P. aeruginosa GIM 1.551. (A) Wound changes of mice after 7 days treatment. (B) Bacterial CFU in the wound area treated for 7 days under different experimental conditions. AS is ampicillin sodium. Data represent the mean Log (CFU) ± SD of five individual experiments. *P < 0.05 and **P < 0.01, compared with PBS. ^#P < 0.05, compared with PMAP-36PW.

[6] = test system: P. aeruginosa GIM 1.551; assay: Subcutaneous abscess model; assay type: in vivo, BALB/c mice; conditions: injected 20 μL, 1 μg/μL, once a day for 3 days
Procedure: A subcutaneous abscess model in vivo was established as previously reported (Zhao et al., [2019]). The mouse dorsal region with 3.0 cm diameter was treated with hair pusher. A total of 120 mice were randomly divided into two experimental models, one was challenged with S. aureus ATCC 25923 (2.5 × 10^8 CFU/mL, 60 μL), and the other was challenged with P. aeruginosa GIM 1.551 (3.0 × 10^8 CFU/mL, 60 μL). In the S. aureus ATCC 25923 model, 60 mice were divided into six groups of 10 members. The mice with no infection and treatment was used as a blank control, those directly injected with PBS (20 μL) as the negative control group, those injected with benzylpenicillin potassium (20 μL, 1 μg/μL) as the positive control group, and the remaining three groups as the treatment groups injected with Myr-36PW (20 μL, 1 μg/μL), PMAP-36PW (20 μL, 1 μg/μL), and PMAP-36 (20 μL, 1 μg/μL). The procedure in P. aeruginosa GIM 1.551 model is the same as that in S. aureus ATCC 25923 model, except for the use of ampicillin sodium as a positive control. Treatment once a day for 3 days was initiated when the mice developed prominent pustules on their backs. A day after the treatment, the size of the abscess was observed, and its tissues were excised, homogenized, and serially diluted. Bacteria CFU counts were calculated.
Figure 10 Treatment efficacy of subcutaneous abscess by Myr-36PW in vivo. Mice were injected with S. aureus ATCC 25923 or P. aeruginosa GIM 1.551 to develop a subcutaneous abscess before treatment. (A) Changes in the abscess area of mice after 3 days treatment. (B,C) Quantitative analysis of bacterial CFU in abscess area that received 3 days treatment under various experimental conditions. The number of CFU in each treatment group was normalized by using the CFU of the experimental group divided by the CFU of the PBS group (100%). BP is benzylpenicillin potassium, AS is ampicillin sodium. Data represent the mean ± SD of five individual experiments. *P < 0.05 and **P < 0.01, compared with PBS. ^#P < 0.05 and ^##P < 0.01, compared with PMAP-36PW.

[7] = test system: P. aeruginosa GIM 1.551; assay: Pneumonia (lung infection) model; assay type: in vivo, BALB/c mice; conditions: intranasal 40 μL, 1 μg/μL, once a day for 3 days
Procedure: A pneumonia model in vivo was established as previously reported, with minor modification (Cortés et al., [2002]; Aoki et al., [2009]; Shi et al., [2018]). A total of 120 mice were randomly divided into two experimental models, one was intranasal inoculation of S. aureus ATCC 25923 (8.3 × 10^9 CFU/mL, 50 μL), and the other was intranasal inoculation of P. aeruginosa GIM 1.551 (4.5 × 10^10 CFU/mL, 50 μL). In the S. aureus ATCC 25923 model, 60 mice were divided into the following six groups of 10 mice each: no infection and treatment was used as a blank control, those with intranasal administration of PBS (40 μL) as the negative control group, those administered with benzylpenicillin potassium (40 μL, 1 μg/μL) as the positive control group, and the remaining three corresponded to Myr-36PW (40 μL, 1 μg/μL), PMAP-36PW (40 μL, 1 μg/μL), and PMAP-36 groups (40 μL, 1 μg/μL). The procedure for P. aeruginosa GIM 1.551 model is the same as for S. aureus ATCC 25923 model, except for the use of ampicillin sodium as the positive control. After 4 h post-inoculation, treatment was initiated, once a day for 3 days. The mice were sacrificed 24 h after the treatment. Changes in the appearance of lung tissues were observed, and lung tissues were removed aseptically from the mice. Half of the removed lung tissues were gently fixed in buffered formaldehyde solution for histopathological assessment by hematoxylin and eosin (H&E) staining. Pathological changes were scored to provide individual therapeutic status as described previously (Lei et al., [2018]). The remaining lung tissues were added with 1 mL of PBS, homogenized, and serially diluted. Bacterial CFU counts were determined.
Figure 8 Therapeutic effect for pneumonia by Myr-36PW in vivo. Mice were injected with S. aureus ATCC 25923 or P. aeruginosa GIM 1.551 to form pneumonia, and lungs (n = 5) in each group were collected on day 4 after intranasal bacterial inoculation. (A) Morphological changes of lung tissues. (B) Representative histopathological images of processed lung section with hematoxylin and eosin (H&E) staining. Images are presented at a magnification of 20×. a: inflammatory cell infiltration. b: the alveolar wall is thickened. c: alveolar wall congestion or alveolar hemorrhage. (C,D) Pathological scores of the lung sections. Scoring standard: 1 indicated no pathology, 2 indicated local pulmonary congestion and inflammatory cell infiltration, 3 indicated pulmonary congestion and a large number of inflammatory cell infiltration, affecting <20% of the section, 4 indicated pulmonary congestion and a large number of inflammatory cell infiltration, affecting 20–50% of the section, and 5 indicated pulmonary congestion and a large number of inflammatory cell infiltration, affecting >50% of the section. (E,F) Bacterial CFU in lung homogenate. BP is benzylpenicillin potassium, AS is ampicillin sodium. Data represent the mean ± SD of five individual experiments.

[8] = test system: S. aureus ATCC 25923; assay type: cell-based, Staphylococcus aureus; conditions: ATCC 25923, 1 h
Procedure: (§2) The effects of abiotic factors on the antibacterial activity of Myr-36PW were investigated by MIC assay (Xi et al., [2013]; Zhong et al., [2019]). S. aureus ATCC 25923 and P. aeruginosa GIM 1.551 overnight cultures were diluted to 1 × 10^6 CFU/mL, and the MICs of peptides in MHB with different concentration of physiological salts (150 mM NaCL, 2 mM CaCL2) were determined. And after the peptides incubated in 10% mice serum for 1 h at 37°C, MICs of peptides against S. aureus ATCC 25923 and P. aeruginosa GIM 1.551 were determined. The MICs in MHB in the absence of physiological salts and serum were used as the control group.
(§3) Salt and serum stability in vitro were indicated by MIC assay. The concentrations of NaCl and CaCl2 were physiological concentration. 10% mice serum was inactivated by heat treatment for 15 min at 60 ℃。The control group was measured in the absence of physiological salts or serum in MHB.

[9] = test system: P. aeruginosa GIM 1.551; assay type: cell-based, Pseudomonas aeruginosa; conditions: GIM 1.551, 1 h
Procedure: as §2, §3

Compound: NCC[C@H](O)C(=O)N[C@@H]1C[C@H](N)[C@@H](O[C@H]2O[C@H](CN)[C@@H](O)[C@H](O)[C@H]2O)[C@H](O)[C@H]1O[C@H]1O[C@H](CO)[C@@H](O)[C@H](N)[C@H]1O [Amikacin]
- MICs of different classes of antibiotics [1]: 128* μg/mL
- MICs of different classes of antibiotics [2]: 4 µg/mL
- MICs of different classes of antibiotics [3]: >128* μg/mL
- MICs of different classes of antibiotics [4]: 32 µg/mL

Compound: CC1(C)S[C@@H]2[C@H](NC(=O)[C@H](N)c3ccccc3)C(=O)N2[C@H]1C(=O)O [Ampicillin sodium]
- MICs of different classes of antibiotics [1]: 64 µg/mL
- Wound size [5]: significantly reduced
- Bacterial CFU in the wound area ([5]; vs PBS group: PMAP-36PW P < 0.05, Myr-36PW and ampicillin sodium P < 0.01, n = 5): significantly reduced
- MICs of different classes of antibiotics [2]: 0.5 µg/mL
- MICs of different classes of antibiotics [3]: 32 µg/mL
- Abscess area [6]: significantly reduced the abscess area and effectively suppressed its growth
- Bacterial CFU in abscess area ([6]; vs PMAP-36PW: Myr-36PW P < 0.05, ampicillin sodium P < 0.01, n = 5): significant difference compared with that of PBS group (P < 0.01); also recorded: lower than that of PMAP-36PW group
- MICs of different classes of antibiotics [4]: 16 µg/mL
- Lung histopathology (H&E) [7]: a complete alveolar structure, reduced blood stasis, and large reduction in inflammatory cells
- Bacterial CFU in lung homogenate ([7]; n = 5): decreased the P. aeruginosa GIM 1.551 CFU level compared with the PMAP-36PW group (P < 0.05)
- Pathological scores of the lung sections ([7]; n = 5): lower scores than PMAP-36PW group (P < 0.05)

Compound: CC[C@H]1OC(=O)[C@H](C)[C@@H](O[C@H]2C[C@@](C)(OC)[C@@H](O)[C@H](C)O2)[C@H](C)[C@@H](O[C@@H]2O[C@H](C)C[C@H](N(C)C)[C@H]2O)[C@](C)(O)C[C@@H](C)CN(C)[C@H](C)[C@@H](O)[C@]1(C)O [Azithromycin]
- MICs of different classes of antibiotics [1]: 64* μg/mL
- MICs of different classes of antibiotics [2]: 64* μg/mL
- MICs of different classes of antibiotics [3]: 128* μg/mL
- MICs of different classes of antibiotics [4]: >128* μg/mL

Compound: CNC(C)C1CCC(N)C(OC2C(N)CC(N)C(OC3OCC(C)(O)C(NC)C3O)C2O)O1 (centres unmarked) [Gentamicin]
- MICs of different classes of antibiotics [1]: 32* μg/mL
- MICs of different classes of antibiotics [2]: 4 µg/mL
- MICs of different classes of antibiotics [3]: 128* μg/mL
- MICs of different classes of antibiotics [4]: 8 µg/mL

Compound: Colistin
- MICs of different classes of antibiotics [1]: 8 µg/mL
- MICs of different classes of antibiotics [2]: 16* μg/mL
- MICs of different classes of antibiotics [3]: 4* μg/mL
- MICs of different classes of antibiotics [4]: 2 µg/mL

Compound: GRFRRLRKKTRKRLKKIGKVLKWIPPIVGSIPLGCG [PMAP-36]
- MICs [1]: 4 µg/mL
- MICs, CaCl2 [8]: 0.0625 µg/mL
- MICs, NaCl [8]: 0.0625 µg/mL
- MICs, Serum [8]: 0.0625 µg/mL
- MICs [2]: 0.0156 µg/mL
- MICs [3]: 1 µg/mL
- MICs [4]: 32 µg/mL
- MICs, CaCl2 [9]: 2 µg/mL
- MICs, Control [9]: 2 µg/mL
- MICs, NaCl [9]: 2 µg/mL
- MICs, Serum [9]: 2 µg/mL

Compound: GRFRRLRKKTRKRLKKIGKVLKWIWWIVGSIPLGCG [PMAP-36PW]
- MICs [1]: 2 µg/mL
- MICs [2]: 0.0078 µg/mL
- MICs [3]: 0.5 µg/mL
- MICs [4]: 16 µg/mL
- MICs, CaCl2 [9]: 1 µg/mL
- MICs, Control [9]: 1 µg/mL
- MICs, NaCl [9]: 1 µg/mL
- MICs, Serum [9]: 1 µg/mL

Compound: Polymyxin B
- MICs of different classes of antibiotics [1]: 8 µg/mL
- MICs of different classes of antibiotics [2]: 16* μg/mL
- MICs of different classes of antibiotics [3]: 4* μg/mL
- MICs of different classes of antibiotics [4]: 2 µg/mL
